Holding throughout (type): biochemical
One assay addresses T1, PI3K delta (Homo sapiens, UniProt O00329).
T1 construct: for the full-length p110-d subunit are generated and fused by overlapping PCR; His tag (C); made in house; host or cells: baculovirus BV1060; Tn5 (Trichoplusia ni) or TiniPro insect cells
Nature of the assay: PI3K delta kinase assay (Kinase-Glo luminescence). The essentials:
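Kinase-Glo ATP-depletion luminescence using 10 nM p85(iSH2)-linker-p110δ full-length His-tag construct from insect cells, with 1 μM ATP and 10 μg/mL phosphatidylinositol in 10 mM Tris pH 7.5, 3 mM MgCl2, 50 mM NaCl, 0.05% CHAPS, 1 mM DTT. 60 min room temperature; IC50 from 4-parameter logistic fit over 8 concentrations.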
For orientation: In Kinase-Glo more light means more ATP remaining.

A further assay addresses T2, PI3K beta (Homo sapiens, UniProt P42338).
T2 construct: for the full-length p110-b subunit are generated and fused by overlapping PCR; His tag (C); made in house; host or cells: baculovirus BV949; Tn5 (Trichoplusia ni) or TiniPro insect cells
Nature of the assay: PI3K beta kinase assay (Kinase-Glo luminescence). The essentials:
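PI3Kβ construct BV949 (p85 iSH2–p110β full-length, C-His), 25 nM, reacted with 1 μM ATP and 10 μg/mL phosphatidylinositol in Tris pH 7.5, MgCl2, NaCl, CHAPS, DTT buffer, 60 min at room temperature. Remaining ATP by Kinase-Glo luminescence; IC50 from 4-parameter logistic fit of 8 concentrations.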

The target of another assay is T3, PI3K alfa (Homo sapiens, UniProt P42336).
T3 construct: His tag (C); made in house; host or cells: baculovirus BV1075; Tn5 (Trichoplusia ni) or TiniPro insect cells
Kind of assay: PI3K alpha kinase assay (Kinase-Glo luminescence). A digest of the protocol: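 Kinase-Glo luminescence read of ATP remaining after PI3Kα (10 nM) phosphorylates 10 μg/mL bovine liver phosphatidylinositol with 1 μM ATP, pH 7.5 TRIS, 3 mM MgCl2, 0.05% CHAPS; 60 min at room temperature. IC50 from 4-parameter logistic fit over 8 concentrations.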

Read-outs that look alike come from different tables or passages of the source.

T3 sequence (P42336 with tags, fused parts or gaps limits assumed): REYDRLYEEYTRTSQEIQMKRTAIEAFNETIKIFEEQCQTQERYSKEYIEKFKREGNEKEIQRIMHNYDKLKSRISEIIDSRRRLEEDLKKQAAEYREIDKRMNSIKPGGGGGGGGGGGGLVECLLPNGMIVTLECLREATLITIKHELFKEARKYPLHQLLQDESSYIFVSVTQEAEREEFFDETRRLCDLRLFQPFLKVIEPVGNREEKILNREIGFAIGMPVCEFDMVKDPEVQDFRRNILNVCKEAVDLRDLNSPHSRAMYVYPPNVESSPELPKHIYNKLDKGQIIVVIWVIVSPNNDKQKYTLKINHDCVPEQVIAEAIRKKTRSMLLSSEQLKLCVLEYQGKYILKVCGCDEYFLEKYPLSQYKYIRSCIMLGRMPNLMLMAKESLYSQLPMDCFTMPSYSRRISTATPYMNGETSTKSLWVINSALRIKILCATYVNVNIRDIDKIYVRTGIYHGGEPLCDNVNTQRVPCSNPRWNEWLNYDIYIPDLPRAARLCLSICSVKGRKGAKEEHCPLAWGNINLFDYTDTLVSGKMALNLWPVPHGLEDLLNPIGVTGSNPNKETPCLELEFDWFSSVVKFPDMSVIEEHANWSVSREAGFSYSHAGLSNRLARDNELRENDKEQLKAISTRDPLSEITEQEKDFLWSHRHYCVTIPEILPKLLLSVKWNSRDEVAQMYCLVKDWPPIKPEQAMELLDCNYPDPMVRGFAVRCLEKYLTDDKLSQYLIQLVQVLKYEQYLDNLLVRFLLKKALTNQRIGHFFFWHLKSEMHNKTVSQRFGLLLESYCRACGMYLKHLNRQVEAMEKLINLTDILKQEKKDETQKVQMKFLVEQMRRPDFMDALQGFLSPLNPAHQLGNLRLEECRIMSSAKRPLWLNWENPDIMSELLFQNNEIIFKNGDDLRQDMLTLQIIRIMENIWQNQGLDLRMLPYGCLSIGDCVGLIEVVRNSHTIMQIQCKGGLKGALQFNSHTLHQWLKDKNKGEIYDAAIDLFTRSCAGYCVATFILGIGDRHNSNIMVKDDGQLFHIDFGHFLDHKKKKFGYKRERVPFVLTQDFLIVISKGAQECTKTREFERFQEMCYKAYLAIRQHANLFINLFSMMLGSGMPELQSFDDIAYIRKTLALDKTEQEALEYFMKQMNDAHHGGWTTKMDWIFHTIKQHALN
T1 sequence (O00329 with tags, fused parts or gaps limits assumed): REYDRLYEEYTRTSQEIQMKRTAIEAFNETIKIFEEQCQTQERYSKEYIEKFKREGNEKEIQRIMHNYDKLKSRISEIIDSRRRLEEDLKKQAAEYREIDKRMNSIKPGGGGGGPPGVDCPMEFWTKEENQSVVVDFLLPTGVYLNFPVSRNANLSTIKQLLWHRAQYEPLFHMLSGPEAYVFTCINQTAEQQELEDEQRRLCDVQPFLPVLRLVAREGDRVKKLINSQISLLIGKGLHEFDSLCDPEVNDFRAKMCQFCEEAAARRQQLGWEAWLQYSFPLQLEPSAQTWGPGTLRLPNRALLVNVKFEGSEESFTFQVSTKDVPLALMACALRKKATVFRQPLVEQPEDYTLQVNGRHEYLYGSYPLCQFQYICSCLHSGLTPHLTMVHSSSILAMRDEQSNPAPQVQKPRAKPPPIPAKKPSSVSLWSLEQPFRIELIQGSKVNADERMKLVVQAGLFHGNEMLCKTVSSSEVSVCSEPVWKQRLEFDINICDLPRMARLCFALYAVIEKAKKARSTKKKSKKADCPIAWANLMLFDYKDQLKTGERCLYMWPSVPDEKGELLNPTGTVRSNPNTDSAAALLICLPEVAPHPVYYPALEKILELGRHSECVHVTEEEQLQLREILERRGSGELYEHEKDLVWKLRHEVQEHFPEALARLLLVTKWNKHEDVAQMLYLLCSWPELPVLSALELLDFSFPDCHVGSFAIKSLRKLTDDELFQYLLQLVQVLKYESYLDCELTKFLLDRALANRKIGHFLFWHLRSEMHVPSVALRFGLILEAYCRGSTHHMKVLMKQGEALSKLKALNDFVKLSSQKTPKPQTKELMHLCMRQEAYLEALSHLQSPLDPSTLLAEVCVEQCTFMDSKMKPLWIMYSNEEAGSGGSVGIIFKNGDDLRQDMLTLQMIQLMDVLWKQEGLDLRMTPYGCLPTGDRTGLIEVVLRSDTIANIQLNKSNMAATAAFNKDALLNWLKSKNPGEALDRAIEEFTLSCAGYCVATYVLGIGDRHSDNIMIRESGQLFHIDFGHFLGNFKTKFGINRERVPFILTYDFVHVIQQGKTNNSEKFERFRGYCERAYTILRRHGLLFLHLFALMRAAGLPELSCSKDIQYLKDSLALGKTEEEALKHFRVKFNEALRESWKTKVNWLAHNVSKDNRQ
T2 sequence (P42338 with tags, fused parts or gaps limits assumed): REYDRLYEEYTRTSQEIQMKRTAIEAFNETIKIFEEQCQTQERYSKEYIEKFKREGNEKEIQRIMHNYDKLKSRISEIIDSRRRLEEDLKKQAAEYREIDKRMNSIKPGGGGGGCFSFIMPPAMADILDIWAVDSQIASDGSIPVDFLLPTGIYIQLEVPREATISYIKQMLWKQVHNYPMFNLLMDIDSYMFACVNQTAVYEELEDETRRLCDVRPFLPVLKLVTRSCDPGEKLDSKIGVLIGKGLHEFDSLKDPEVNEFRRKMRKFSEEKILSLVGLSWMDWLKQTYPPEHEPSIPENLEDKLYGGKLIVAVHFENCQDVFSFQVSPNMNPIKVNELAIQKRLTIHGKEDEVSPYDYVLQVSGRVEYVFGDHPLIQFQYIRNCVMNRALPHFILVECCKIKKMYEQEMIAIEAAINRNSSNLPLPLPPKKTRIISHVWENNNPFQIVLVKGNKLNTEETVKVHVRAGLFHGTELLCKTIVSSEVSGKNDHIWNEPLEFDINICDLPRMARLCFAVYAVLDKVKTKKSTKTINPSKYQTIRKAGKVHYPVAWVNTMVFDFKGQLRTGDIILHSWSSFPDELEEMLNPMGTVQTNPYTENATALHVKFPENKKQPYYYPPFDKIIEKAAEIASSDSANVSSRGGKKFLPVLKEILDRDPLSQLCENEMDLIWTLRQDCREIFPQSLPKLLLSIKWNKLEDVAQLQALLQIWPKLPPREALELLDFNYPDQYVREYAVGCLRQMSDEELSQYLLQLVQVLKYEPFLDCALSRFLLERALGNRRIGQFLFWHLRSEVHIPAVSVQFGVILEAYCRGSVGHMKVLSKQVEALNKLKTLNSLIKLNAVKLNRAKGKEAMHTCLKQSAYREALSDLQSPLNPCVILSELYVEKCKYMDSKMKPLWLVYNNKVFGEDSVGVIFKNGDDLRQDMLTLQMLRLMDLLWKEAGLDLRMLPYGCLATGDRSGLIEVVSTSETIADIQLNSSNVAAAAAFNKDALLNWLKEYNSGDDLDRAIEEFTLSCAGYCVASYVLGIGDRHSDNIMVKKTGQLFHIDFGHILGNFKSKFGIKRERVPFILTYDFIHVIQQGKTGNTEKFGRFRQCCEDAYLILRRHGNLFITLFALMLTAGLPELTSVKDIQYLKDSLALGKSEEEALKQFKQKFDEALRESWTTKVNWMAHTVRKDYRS

Consider `COc1ccc(-c2ccc3ncc4c(c3c2)n(-c2cccnc2OC)c(=O)n4C)cn1` [Example 1.1, 1-(2-Methoxy-pyridin-3-yl)-8-(6-methoxy-pyridin-3-yl)-3-methyl-1,3-dihydro-imidazo[4,5-c]quinolin-2-one], for which the results for the IC50 at PI3K delta (read-out: PI3Kdelta/IC50), at PI3K beta (read-out: PI3Kbeta/IC50) and on PI3K alfa (read-out: PI3Kalfa/IC50) were 0.026 µM, 0.202 µM and 0.023 µM, respectively.

For the compound `COc1ncccc1-n1c(=O)n(C)c2cnc3ccc(-c4cnc(N)c(C(F)(F)F)c4)cc3c21` [Example 1.3, 8-(6-Amino-5-trifluoromethyl-pyridin-3-yl)-1-(2-methoxy-pyridin-3-yl)-3-methyl-1,3-dihydro-imidazo[4,5-c]quinolin-2-one], the IC50 at PI3K delta (read-out: PI3Kdelta/IC50) was found to be 0.008 µM; on PI3K beta (read-out: PI3Kbeta/IC50), 0.023 µM; at PI3K alfa (read-out: PI3Kalfa/IC50), 0.01 µM.

`CNc1ccc(-c2ccc3ncc4c(c3c2)n(-c2cccnc2OC)c(=O)n4C)cn1` [Example 1.4, 1-(2-Methoxy-pyridin-3-yl)-3-methyl-8-(6-methylamino-pyridin-3-yl)-1,3-dihydro-imidazo[4,5-c]quinolin-2-one]: the IC50 came out at 0.081 µM on PI3K delta (read-out: PI3Kdelta/IC50), 0.374 µM on PI3K beta (read-out: PI3Kbeta/IC50) and 0.048 µM at PI3K alfa (read-out: PI3Kalfa/IC50).

With `CCOc1ccc(-c2ccc3ncc4c(c3c2)n(-c2cccnc2OC)c(=O)n4C)cn1` [Example 1.5, 8-(6-Ethoxy-pyridin-3-yl)-1-(2-methoxy-pyridin-3-yl)-3-methyl-1,3-dihydro-imidazo[4,5-c]quinolin-2-one], the IC50 amounted to 0.166 µM on PI3K delta (read-out: PI3Kdelta/IC50), 0.505 µM at PI3K beta (read-out: PI3Kbeta/IC50) and 0.04 µM at PI3K alfa (read-out: PI3Kalfa/IC50).

Take `COc1ncccc1-n1c(=O)n(C)c2cnc3ccc(-c4cnc5c(ccn5C)c4)cc3c21` [Example 1.7, 1-(2-Methoxy-pyridin-3-yl)-3-methyl-8-(1-methyl-1H-pyrrolo[2,3-b]pyridin-5-yl)-1,3-dihydro-imidazo[4,5-c]quinolin-2-one]: the values for the IC50 on PI3K delta (read-out: PI3Kdelta/IC50) and on PI3K alfa (read-out: PI3Kalfa/IC50) were 0.101 µM and 0.134 µM, respectively.

On to `COc1ncccc1-n1c(=O)n(C)c2cnc3ccc(-c4ccc(F)nc4)cc3c21` [Example 1.8, 8-(6-Fluoro-pyridin-3-yl)-1-(2-methoxy-pyridin-3-yl)-3-methyl-1,3-dihydro-imidazo[4,5-c]quinolin-2-one], for which the IC50 was found to be 0.364 µM on PI3K delta (read-out: PI3Kdelta/IC50) and 0.058 µM at PI3K alfa (read-out: PI3Kalfa/IC50).

Take `COc1ncccc1-n1c(=O)n(C)c2cnc3ccc(-c4cnc(N(C)C)nc4)cc3c21` [Example 1.9, 8-(2-Dimethylamino-pyrimidin-5-yl)-1-(2-methoxy-pyridin-3-yl)-3-methyl-1,3-dihydro-imidazo[4,5-c]quinolin-2-one]: the IC50 came to 0.085 µM on PI3K delta (read-out: PI3Kdelta/IC50) and 0.071 µM on PI3K alfa (read-out: PI3Kalfa/IC50).

For the compound `CCOc1ccc(-c2ccc3ncc4c(c3c2)n(-c2cccnc2C)c(=O)n4C)cn1` [Example 2.1, 8-(6-Ethoxy-pyridin-3-yl)-3-methyl-1-(2-methyl-pyridin-3-yl)-1,3-dihydro-imidazo[4,5-c]quinolin-2-one], the IC50 at PI3K delta (read-out: PI3Kdelta/IC50) stood at 0.094 µM; at PI3K beta (read-out: PI3Kbeta/IC50), 0.58 µM; at PI3K alfa (read-out: PI3Kalfa/IC50), 0.056 µM.

With `CNc1ncc(-c2ccc3ncc4c(c3c2)n(-c2cccnc2C)c(=O)n4C)cn1` [Example 2.2, 3-Methyl-8-(2-methylamino-pyrimidin-5-yl)-1-(2-methyl-pyridin-3-yl)-1,3-dihydro-imidazo[4,5-c]quinolin-2-one], the values for the IC50 on PI3K delta (read-out: PI3Kdelta/IC50), on PI3K beta (read-out: PI3Kbeta/IC50) and on PI3K alfa (read-out: PI3Kalfa/IC50) were 0.022 µM, 0.165 µM and 0.026 µM, respectively.

As to `Cc1ncccc1-n1c(=O)n(C)c2cnc3ccc(-c4cnc5c(ccn5C)c4)cc3c21` [Example 2.14, 3-Methyl-1-(2-methyl-pyridin-3-yl)-8-(1-methyl-1H-pyrrolo[2,3-b]pyridin-5-yl)-1,3-dihydro-imidazo[4,5-c]quinolin-2-one], the IC50 on PI3K delta (read-out: PI3Kdelta/IC50) is 0.057 µM; at PI3K beta (read-out: PI3Kbeta/IC50), 0.315 µM; on PI3K alfa (read-out: PI3Kalfa/IC50), 0.034 µM.

As to `CCOc1cc(-c2ccc3ncc4c(c3c2)n(-c2cccnc2C)c(=O)n4C)cnc1C` [Example 2.22, 8-(5-Ethoxy-6-methyl-pyridin-3-yl)-3-methyl-1-(2-methyl-pyridin-3-yl)-1,3-dihydro-imidazo[4,5-c]quinolin-2-one], the values for the IC50 on PI3K delta (read-out: EPK_PI3Kdelta/IC50), at PI3K beta (read-out: EPK_PI3Kbeta/IC50) and at PI3K alfa (read-out: EPK_PI3Kalfa/IC50) were 0.061 µM, 0.201 µM and 0.081 µM, respectively.

With `Cc1cccnc1-n1c(=O)n(C)c2cnc3ccc(-c4cnc5ccccc5c4)cc3c21` [Example 3.8, 3-Methyl-1-(3-methyl-pyridin-2-yl)-8-quinolin-3-yl-1,3-dihydro-imidazo[4,5-c]quinolin-2-one], the IC50 at PI3K delta (read-out: PI3Kdelta/IC50) came out at 0.264 µM; at PI3K alfa (read-out: PI3Kalfa/IC50) it was 0.07 µM.

Consider `COc1ccc(-c2ccc3ncc4c(c3c2)n(-c2ncccc2C)c(=O)n4C)cn1` [Example 3.13, 8-(6-Methoxy-pyridin-3-yl)-3-methyl-1-(3-methyl-pyridin-2-yl)-1,3-dihydro-imidazo[4,5-c]quinolin-2-one], for which the IC50 came out at 0.249 µM at PI3K delta (read-out: PI3Kdelta/IC50) and 0.09 µM at PI3K alfa (read-out: PI3Kalfa/IC50).

On to `COc1ccc(-c2ccc3ncc4c(c3c2)n(-c2cccnc2)c(=O)n4C)cc1OC` [Example 5.2, 8-(3,4-Dimethoxy-phenyl)-3-methyl-1-pyridin-3-yl-1,3-dihydro-imidazo[4,5-c]quinolin-2-one], for which the IC50 was found to be 0.072 µM on PI3K delta (read-out: PI3Kdelta/IC50), 0.295 µM at PI3K beta (read-out: PI3Kbeta/IC50) and 0.029 µM at PI3K alfa (read-out: PI3Kalfa/IC50).

For the compound `COc1ccc(-c2ccc3ncc4c(c3c2)n(-c2cccnc2)c(=O)n4C)cn1` [Example 5.4, 8-(6-Methoxy-pyridin-3-yl)-3-methyl-1-pyridin-3-yl-1,3-dihydro-imidazo[4,5-c]quinolin-2-one], the IC50 stood at 0.039 µM at PI3K delta (read-out: PI3Kdelta/IC50), 0.263 µM at PI3K beta (read-out: PI3Kbeta/IC50) and 0.019 µM on PI3K alfa (read-out: PI3Kalfa/IC50).

For the compound `CCNc1cc(-c2ccc3ncc4c(c3c2)n(-c2ccc(F)nc2C)c(=O)n4C)cnc1CO` [Example 7.9, 8-(5-Ethylamino-6-hydroxymethyl-pyridin-3-yl)-1-(6-fluoro-2-methyl-pyridin-3-yl)-3-methyl-1,3-dihydro-imidazo[4,5-c]quinolin-2-one], the IC50 at PI3K delta (read-out: EPK_PI3Kdelta/IC50) was 0.036 µM; at PI3K beta (read-out: EPK_PI3Kbeta/IC50), 0.069 µM; on PI3K alfa (read-out: EPK_PI3Kalfa/IC50) it was 0.02 µM.

As for `CNc1cc(-c2ccc3ncc4c(c3c2)n(-c2ccc(F)nc2C)c(=O)n4C)cnc1CO` [Example 7.11, 1-(6-Fluoro-2-methyl-pyridin-3-yl)-8-(6-hydroxymethyl-5-methylamino-pyridin-3-yl)-3-methyl-1,3-dihydro-imidazo[4,5-c]quinolin-2-one], the results for the IC50 at PI3K delta (read-out: EPK_PI3Kdelta/IC50), at PI3K beta (read-out: EPK_PI3Kbeta/IC50) and on PI3K alfa (read-out: EPK_PI3Kalfa/IC50) were 0.026 µM, 0.041 µM and 0.017 µM, respectively.

Regarding `CNc1ncc(-c2ccc3ncc4c(c3c2)n(-c2ccc(F)nc2C)c(=O)n4C)cc1F` [Example 7.12, 8-(5-Fluoro-6-methylamino-pyridin-3-yl)-1-(6-fluoro-2-methyl-pyridin-3-yl)-3-methyl-1,3-dihydro-imidazo[4,5-c]quinolin-2-one], the IC50 worked out at 0.012 µM at PI3K delta (read-out: EPK_PI3Kdelta/IC50), 0.265 µM at PI3K beta (read-out: EPK_PI3Kbeta/IC50) and 0.044 µM on PI3K alfa (read-out: EPK_PI3Kalfa/IC50).

For `CNc1ncc(-c2ccc3ncc4c(c3c2)n(-c2ccc(F)nc2C)c(=O)n4C)cc1C(F)(F)F` [Example 7.13, 1-(6-Fluoro-2-methyl-pyridin-3-yl)-3-methyl-8-(6-methylamino-5-trifluoromethyl-pyridin-3-yl)-1,3-dihydro-imidazo[4,5-c]quinolin-2-one], the figures for the IC50 at PI3K delta (read-out: EPK_PI3Kdelta/IC50), at PI3K beta (read-out: EPK_PI3Kbeta/IC50) and on PI3K alfa (read-out: EPK_PI3Kalfa/IC50) were 0.003 µM, 0.042 µM and 0.011 µM, respectively.

As for `CNC(=O)c1cc(-c2ccc3ncc4c(c3c2)n(-c2ccc(F)nc2C)c(=O)n4C)cnc1N` [Example 7.14, 2-Amino-5-[1-(6-fluoro-2-methyl-pyridin-3-yl)-3-methyl-2-oxo-2,3-dihydro-1H-imidazo[4,5-c]quinolin-8-yl]-N-methyl-nicotinamide], the values for the IC50 on PI3K delta (read-out: EPK_PI3Kdelta/IC50), at PI3K beta (read-out: EPK_PI3Kbeta/IC50) and on PI3K alfa (read-out: EPK_PI3Kalfa/IC50) were 0.005 µM, 0.014 µM and 0.011 µM, respectively.

Regarding `CCOCc1cc(-c2ccc3ncc4c(c3c2)n(-c2ccc(F)nc2C)c(=O)n4C)cnc1N` [Example 7.15, 8-(6-Amino-5-ethoxymethyl-pyridin-3-yl)-1-(6-fluoro-2-methyl-pyridin-3-yl)-3-methyl-1,3-dihydro-imidazo[4,5-c]quinolin-2-one], the IC50 on PI3K delta (read-out: EPK_PI3Kdelta/IC50) turned out to be 0.037 µM; at PI3K beta (read-out: EPK_PI3Kbeta/IC50), 0.194 µM; at PI3K alfa (read-out: EPK_PI3Kalfa/IC50), 0.059 µM.

Turning to `Cc1nc(F)ccc1-n1c(=O)n(C)c2cnc3ccc(-c4cncc(N)c4)cc3c21` [Example 7.16, 8-(5-Amino-pyridin-3-yl)-1-(6-fluoro-2-methyl-pyridin-3-yl)-3-methyl-1,3-dihydro-imidazo[4,5-c]quinolin-2-one], the IC50 on PI3K delta (read-out: EPK_PI3Kdelta/IC50) came out at 0.0565 µM; on PI3K beta (read-out: EPK_PI3Kbeta/IC50) it was 0.236 µM; on PI3K alfa (read-out: EPK_PI3Kalfa/IC50), 0.101 µM.

Consider `Cc1nc(F)ccc1-n1c(=O)n(C)c2cnc3ccc(-c4cnc(N)c(CO)c4)cc3c21` [Example 7.17, 8-(6-Amino-5-hydroxymethyl-pyridin-3-yl)-1-(6-fluoro-2-methyl-pyridin-3-yl)-3-methyl-1,3-dihydro-imidazo[4,5-c]quinolin-2-one], for which the IC50 on PI3K delta (read-out: EPK_PI3Kdelta/IC50) was 0.02 µM; at PI3K beta (read-out: EPK_PI3Kbeta/IC50) it was 0.188 µM; on PI3K alfa (read-out: EPK_PI3Kalfa/IC50), 0.064 µM.

The record behind these values is patent US20100311714A1, “1H-IMIDAZO[4,5-c]QUINOLINONE COMPOUNDS” (priority 2009, published 2010).
